Starred links: 1 amine or outer side, 2 acyl side, 3 side chain; linkers in the order of their positions; H or OH if unused. Positions of bridges follow the written chain, without caps; N, C: chain ends. Non-standard residues stand in square brackets, D forms with d. Residues, ends and D or L forms follow the SMILES beside them. No end group written: not given here. Cysteamide = C(CS[*:3])N[*:1]; AEEEA = NCCOCCOCCOCC(=O)O
Tests used:
[1] = system: LoVo cell line; assay: Cytotoxicity assay (MTT); assay type: cell-based, human
Procedure: […] The measurement of cell viability was done with MTT (Thiazolyl blue, Sigma M-5655) tetrazolium salt. MTT is cleaved to water-insoluble formazan dye by the “succinate-tetrazolium reductase” system, which is active only in viable cells. After formazan was solubilized by 10% SDS-0.01 M HCl, it was quantified in an ELISA spectrometer (ThermoLabsystems Multiscan EX) at 560 nm. CuSAO2 [trans-bis(salicylaldoximato)copper(II)] 7.5 μg/ml was used as a positive control for 100% toxicity.
Procedure. Cells were trypsinized from the cell culture dish (ø9 cm) with 1 ml of TE for 1-5 minutes and moved to a 50 ml Falcon tube. After this the volume was increased to 20 ml of cell line specific medium and cells were transferred to a Bürker chamber and diluted in medium to a concentration of 2500-3500 cells/100 μl depending on cell line. […]
Next day 40 μl of medium was removed from all wells except from the ones with only medium and one column with cells. […] The next day the cell morphology was analyzed with a microscope. […]
The next day, the MTT assay described above was performed. The viable count (v.c.) was calculated as: [formula]

[2] = system: Athymic nude mice; assay: In vivo toxicity study; settings: 1 mg i.v. into tail vein; observed 30 min after injection and 15 min on the following day
Procedure: 1 mg of targeting unit HP203 (described in Example 2) was injected i.v. into the tail vein of three Athymic nude mice in a volume of 100 μl of sterile physiological saline. The behavior of mice was observed during 30 min right after injection and during 15 min on the following day (comparison to non-injected mouse).

[3] = system: HCT-15 cell line; assay: Cell binding assay to immobilized targeting agents; assay type: cell-based, human; settings: wells coated at 30 μg/ml, 75000 cells, 30 minutes at 37° C., MTT detection
Procedure: The human colorectal cancer HCT-15 cell line (ATCC: CCL-225), called herein also “HCT-15”, was cultured in RPMI 1640 medium with 2 mM L-glutamine adjusted to contain 1.5 g/L sodium bicarbonate, 4.5 g/L glucose, 10 mM HEPES, and 1.0 mM sodium pyruvate, 1% penicillin/streptomycin, 10% fetal bovine serum.
(§1) Preparation of plates for assays. Wells of Reacti-Bind Maleimide activated clear strip plate (Pierce, Prod#. 15150) were coated with targeting agents of this invention at a concentration of 30 μg/ml. The incubation was carried out of overnight at 20° C. The binding buffer containing unbound peptide was removed from the wells.
(§2) The wells were blocked with blocking buffer (0.5% BSA, 0.05% Tween20 in phosphate buffer saline (PBS). PBS was prepared as follows: 40 g of NaCl, 1 g of KCl, 7 g of Na2HPO4×2H2O and 1 g of KH2PO4 were dissolved in 1000 ml of deionized H2O. Blank wells as controls were prepared by treating empty wells with blocking buffer. The plates were incubated 1 hour 30 min at 20° C. After incubation the plate was washed three times with PBS, pH 7.4.
(§3) Cell binding assay. 75000 cells in volume of 150 μl of medium were added into coated wells and were incubated for 30 minutes at 37° C. After cell binding, the wells were washed with PBS for 30 minutes. […] On following day the absorbance of plate was measured at 560 nm with ELISA-reader (ThermoLabsystems, Multiskan EX). […]

[4] = system: HCT-15-LM1 cell line; assay: Cell binding assay to immobilized targeting agents; assay type: cell-based, human; settings: wells coated at 30 μg/ml, 75000 cells, 30 minutes at 37° C., MTT detection
Excerpt: The colorectal cancer cell line HCT-15-LM1 was developed as follows. The cell culture was started with cancer cells from lung metastases which had developed after injection of human colorectal cancer HCT-15 cells into the bloodstream of a mouse. The inoculation procedure was then repeated with HCT-15-LM1 cells leading to the establishment of another metastatic cell line, HCT-15-LM2.
as §1, §2
Cell binding assay. 75000 cells in volume of 150 μl of medium were added into coated wells and were incubated for 30 minutes at 37° C. […] On following day the absorbance of plate was measured at 560 nm with ELISA-reader (ThermoLabsystems, Multiskan EX). […]

[5] = system: HSC-3 oral cancer cell line; assay: Cell binding assay to immobilized targeting agents; assay type: cell-based, human; settings: wells coated at 30 μg/ml, 75000 cells, 30 minutes at 37° C., MTT detection
Procedure: The human oral squamous cell carcinoma line HSC-3, called herein “HSC-3” (JCRB Cell Bank 0623, National Institute of Health Sciences, Japan) was cultivated in 1:1 DMEM and Ham's F 12 medium containing 10% FBS, 1% penicillin/streptomycin, L-glutamate and sodium pyruvate and 0.4 ng/ml hydrocortisone.
as §1, §2, §3

[6] = system: C8161T melanoma cell line; assay: Cell binding assay to immobilized targeting agents; assay type: cell-based, human; settings: wells coated at 30 μg/ml, 75000 cells, 30 minutes at 37° C., MTT detection
Procedure: The human melanoma cell line C8161 has been described previously by Welch et al. in Int. J. Cancer, 1991, 47: 227-237. A more metastatic cell line C8161T, called herein also “C8161T”, was developed by culturing cells from a subcutaneous melanoma tumor developed after inoculation of C8161 melanoma cells on the flank of a nude mouse. The cell line was cultured in DMEM medium adjusted to contain 2 mM L-glutamine, 1% penicillin/streptomycin, and 10% fetal bovine serum.
as §1, §2
Cell binding assay. […] On following day the absorbance of plate was measured at 560 nm with ELISA-reader (ThermoLabsystems, Multiskan EX). […]

[7] = system: mouse fibroblast cell line NIH3T3; assay: Cell binding assay to immobilized targeting agents (control cell line); assay type: cell-based; settings: wells coated at 30 μg/ml, 75000 cells, 30 minutes at 37° C., MTT detection
Procedure: The mouse fibroblast line NIH3T3, called herein also “NIH3T3”, has been described previously by Koga et al. in Gann, 1979, 70: 585-591. The cell line was cultured in DMEM medium adjusted to contain 2 mM L-glutamine, 1% penicillin/streptomycin, and 10% fetal bovine serum.
as §1, §2, §3

[8] = system: murine endothelial cell line SVEC4-10; assay: as above; assay type: cell-based, mouse; settings: control cell line SVEC4-10; wells coated at 30 μg/ml; 75000 cells, 30 minutes at 37° C.; MTT detection
Procedure: The mouse vascular endothelial cell line SVEC4-10, called herein also “SVEC4-10”, has been described previously by O'Connell et al. in J. Immunol., 1990, 144: 521-525. The cell line was cultured in DMEM medium adjusted to contain 2 mM L-glutamine, 1% penicillin/streptomycin, and 10% fetal bovine serum.
as §1, §2, §3

[9] = system: lung metastases of colorectal cancer patients; assay: Bio-panning of phage display library on clinical tumor samples; assay type: binding, human; settings: phage-displayed CX7C library; ex vivo panning round three
Excerpt: Phage display library. Standard procedures according to Smith and Scott (ibid.) were used. Phage display library used for screening of clinical samples was cloned in fUSE5 vector and was of the cyclic structure CX7C. The E. coli strain K91kan was used as host for phage amplification.
Phage display on clinical tumor samples. Tissue samples were surgically removed from lung metastases of colorectal cancer patients. Part of the sample was taken for pathological examination, rest was placed in ice cold DMEM-PI (Dulbecco's medium containing protease inhibitors PI; 10 mM PMSF (Phenyl-methyl-sulphonyl-fluoride), Aprotinin (10 mg/ml) Leupeptin (10 mg/ml)). Tissue samples were minced with a razor blade in a small cell culture plate in 1 ml of DMEM containing protease inhibitors. The samples were transferred to an eppendorf tube and washed with 1 ml DMEM-PI.
Samples were centrifuged at 5000 rpm for 4 min and were then incubated with […] transducing units of phage in 1 ml DMEM-PI at 25° C. for 15 min.
1 ml K91kan bacteria, OD600: 1-1.5, in LB containing 100 μg/ml kanamycin (kan) were infected with the washed pellet containing selectively attached phage particles at 25° C. for 25 min. […]
Then the bacteria were pelleted at 5000 rpm for 15 min. […] For the next rounds of bio-panning of clinical samples the titre of the TBS phage stock was determined as described above. […]

Compound | binding of cells to immobilized targeting agent (absorbance at 560 nm) [3] | binding of cells to immobilized targeting agent (absorbance at 560 nm) [4] | binding of cells to immobilized targeting agent (absorbance at 560 nm) [5] | binding of cells to immobilized targeting agent (absorbance at 560 nm) [6] | binding of cells to immobilized targeting agent (absorbance at 560 nm) [7] | binding of cells to immobilized targeting agent (absorbance at 560 nm) [8] | Peptides selectively binding to lung tumors (enriched in bio-panning) [9] | also measured
[Cu+2].[O-]c1ccccc1C=NO.[O-]c1ccccc1C=NO [CuSAO2, trans-bis(salicylaldoximato)copper(II), reference compound] |  |  |  |  |  |  |  | cell killing ([1]; 7.5 μg/ml, positive control): 100%
CC(C)C[C@@H]1NC(=O)[C@H](Cc2ccccc2)NC(=O)CNC(=O)[C@H](Cc2ccc(O)cc2)NC(=O)[C@@H](NC(=O)[C@H](C)NC(=O)CNC(=O)[C@H](CC(=O)O)NC(=O)[C@H](C)N)CSSC[C@@H](C(=O)NCCOCCOCCOCC(=O)NCCOCCOCCOCC(=O)NCCOCCOCCOCC(N)=O)NC(=O)[C@H](CCC(N)=O)NC(=O)CNC(=O)[C@H](Cc2c[nH]c3ccccc23)NC1=O [HP203] (H-ADGACYGFLWGQC[AEEEA][AEEEA][AEEEA]-NH2; disulfide 5-13; N-terminus assumed) |  |  |  |  |  |  |  | toxicity for the tested cell line (viable count, MTT) ([1]; 5 μg/ml and 138 μg/ml, 24 h, 48 h, 72 h): non-toxic; toxic effect on mice (behavior observed) [2]: did not have any toxic effect
Ac-aYGFVWGEE-(Teg-Glu)2-EAT [MJ012] | bind selectively | bind selectively | bind selectively | bind selectively | significantly less binding | significantly less binding |  | 
CYGFLWGQC |  |  |  |  |  |  | selectively binding | 
CYGFVWGEC (disulfide 1-9 (inferred)) |  |  |  |  |  |  | selectively binding | 
a*YGFVWGEE*-(Teg-Glu)2-EAT ([dA]YGFVWGEE[AEEEA]E[AEEEA]E-Cysteamide; lactam N-9; not fully specified; printed as a*YGFVWGEE*-(Teg-Glu)2-EAT) [MJ013] | bind selectively | bind selectively | bind selectively | bind selectively | significantly less binding | significantly less binding |  | 
